Data set [1] deals with T1, human farnesoid X receptor (FXR) alpha ligand binding domain (Homo sapiens, UniProt Q96RI1).
T1 construct: made in house; host or cells: E. coli BL21(DE3), vector pDEST15
T1 sequence (Q96RI1 187-472 isoform Q96RI1-2): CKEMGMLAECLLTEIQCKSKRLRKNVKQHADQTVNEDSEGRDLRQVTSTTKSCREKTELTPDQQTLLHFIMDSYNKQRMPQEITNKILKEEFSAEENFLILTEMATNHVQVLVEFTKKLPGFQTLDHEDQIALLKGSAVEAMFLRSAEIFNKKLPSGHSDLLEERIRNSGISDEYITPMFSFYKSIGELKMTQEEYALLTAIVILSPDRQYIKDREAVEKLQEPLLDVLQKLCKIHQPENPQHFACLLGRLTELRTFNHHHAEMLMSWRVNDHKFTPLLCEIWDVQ
The data set is described as follows: FRET activity assay (ligand mediated cofactor peptide interaction, LANCE). It counts as biochemical. Conditions: FXR-LBD/SRC-1 peptide interaction. The protocol: Determination of a ligand mediated cofactor peptide interaction to quantify ligand binding to the nuclear receptor Farnesoid X Receptor (FXR) was performed as follows:
Preparation of human farnesoid X receptor (FXR) alpha ligand binding domain: The human FXRalpha ligand binding domain (LBD) was expressed in E. coli strain BL21(DE3) as an N-terminally glutathione-S-transferase (GST) tagged fusion protein. The DNA encoding the FXR ligand binding domain was cloned into vector pDEST15 (Invitrogen). Expression was under control of an IPTG inducible T7 promoter. The amino acid boundaries of the ligand binding domain were amino acids 187-472 of Database entry NM_005123 (RefSeq). Expression and purification of the FXR-LBD: An overnight preculture of a transformed E. coli strain was diluted 1:20 in LB-Ampicillin medium and grown at 30° C. to an optical density of OD600=0.4-0.6. Gene expression was then induced by addition of 0.5 mM IPTG. Cells were incubated an additional 6 h at 30° C., 180 rpm. Cells were collected by centrifugation (7000×g, 7 min, room temperature). Per liter of original cell culture, cells were resuspended in 10 ml lysis buffer (50 mM Glucose, 50 mM Tris pH 7.9, 1 mM EDTA and 4 mg/ml lysozyme) and left on ice for 30 min. Cells were then subjected to sonication and cell debris removed via centrifugation (22000×g, 30 min, 4° C.). Per 10 ml of supernatant 0.5 ml prewashed Glutathione 4B sepharose slurry (Qiagen) was added and the suspension kept slowly rotating for 1 h at 4° C. Glutathione 4B sepharose beads were pelleted by centrifugation (2000 g, 15 sec, 4° C.) and washed twice in wash buffer (25 mM Tris, 50 mM KCl, 4 mM MgCl2 and 1 M NaCl). The pellet was resuspended in 3 ml elution buffer per liter of original culture (elution buffer: 20 mM Tris, 60 mM KCl, 5 mM MgCl2 and 80 mM glutathione added immediately prior to use as powder). The suspension was left rotating for 15 min at 4° C., the beads pelleted and eluted again with half the volume of elution buffer than the first time. The eluates were pooled and dialysed overnight in 20 mM Hepes buffer (pH 7.5) containing 60 mM KCl, 5 mM MgCl2 as well as 1 mM dithiothreitol and 10% (v/v) glycerol. The protein was analysed by SDS-Page.
The method measures the ability of putative ligands to modulate the interaction between the purified bacterial expressed FXR ligand binding domain (LBD) and a synthetic biotinylated peptide based on residues 676-700 of SRC-1 (LCD2, 676-700). The sequence of the peptide used was B-[…]-COOH where the N-terminus was biotinylated (B). The ligand binding domain (LBD) of FXR was expressed as fusion protein with GST in BL-21 cells using the vector pDEST15. Cells were lysed by sonication, and the fusion proteins purified over glutathione sepharose (Pharmacia) according to the manufacturers instructions. […] For ease of handling and reduction of background from compound fluorescence LANCE technology makes use of generic fluorophore labels and time resolved detection Assays were done in a final volume of 25 μl in a 384 well plate, in a Tris-based buffer (20 mM Tris-HCl pH 7.5; 60 mM KCl, 5 mM MgCl2; 35 ng/μl BSA), containing 20-60 ng/well recombinantly expressed FXR-LBD fused to GST, 200-600 nM N-terminally biotinylated peptide, representing SRC1 aminoacids 676-700, 200 ng/well Streptavidin-xIAPC conjugate (Prozyme) and 6-10 ng/well Eu W1024-antiGST (Perkin Elmer). […]

A short description of the next data set: PAMPA permeability assay. It counts as in vitro ADME. Conditions: % of compound found in the receiver compartment after 16 hours; PBS pH 7.4, 5% DMSO, 23° C. The protocol: Artificial membrane permeability was determined as follows: Tested compounds were dissolved to 10 mM in 100% DMSO. Permeability of compounds was measured in PBS (pH 7.4), 5% DMSO at 23° C. Safire (Tecan) plate reader was used for measurement the UV/Vis absorption. Protocol: Dilute stocks of tested compounds and controls with PBS to 1.67 mM and mix well by pipetting, add 280 μl of PBS, 5% DMSO to acceptor plate, add 5 μl of 2% L-α-Phosphatidylcholine suspension in dodecane to the membrane of donor plate. Immediately add 98 μl of PBS to donor plate and make the sandwich with acceptor plate. Add 42 μl of tested compounds and controls dilutions to […], cover the plate, place into camera and incubate for 16 hours. Make the equilibrium plate, add 225 μl of PBS, 3.7% DMSO and 25 μl of tested compounds and controls dilutions to UV plate. After 16 hours pull the donor plate out and transfer 250 μl from acceptor plate to UV plate. Scan UV plate on Safire (Tecan) plate reader from […]. Permeability is reported in % of compound found in the receiver compartment after the incubation period. Applying this protocol, PAMPA permeabilities of examples and reference compounds were determined as follows (see Table 4): […]

The source of these data is patent US8193192B2, “Heterocyclic FXR binding compounds” (Phenex Pharmaceuticals AG, priority 2006, dated 2012).

For the molecule `Cc1cc(OCc2c(-c3c(Cl)cccc3Cl)noc2C(C)C)cnc1Oc1ccc(C(=O)O)cc1` [Example 3, 4-(5-((3-(2,6-Dichlorophenyl)-5-isopropylisoxazol-4-yl)methoxy)-3-methylpyridin-2-yloxy)benzoic acid], the melting point lay in the range of 74 to 76 °C. In data set [1], this molecule gave an EC50 of no more than 1000 nM. In the case of `CC(C)c1onc(-c2c(Cl)cccc2Cl)c1COc1ccc(Oc2ccc(C(=O)O)cc2)cc1` [Compound A, reference compound], the “PAMPA Permeability” value in the data set “PAMPA permeability assay” turned out to be 32%.
